This passage reports IC50 results from BindingDB's records for doi:10.1021/jm00108a031 (Roche Research Center, 1991).

The structures appear in SMILES notation.

The first experiment in a line: In vitro for platelet activating factor receptor antagonist activity in a binding assay using washed whole dog platelets.
As a reminder, the IC50 is the concentration at which inhibition is half-maximal. The low end stands for inhibition by little substance, the high end for a need for much substance. Turning to `Cc1nnc2n1-c1sc(C#C[Si](C)(C)C)cc1C(c1ccccc1Cl)=NC2`, the IC50 turned out to be 20 nM.

Compound `Cc1nnc2n1-c1sc(/C=C\c3ccc4c(c3)CCC4)cc1C(c1ccccc1Cl)=NC2` gave an IC50 of 110 nM.

As to `Cc1nnc2n1-c1sc(-c3cc(=O)[nH][nH]3)cc1C(c1ccccc1Cl)=NC2`, the IC50 was 1000 nM.

`Cc1nnc2n1-c1sc(CCc3ccc4c(c3)CCO4)cc1C(c1ccccc1Cl)=NC2` registered an IC50 of 20 nM.

`Cc1nnc2n1-c1sc(/C=C\c3ccc(CC(C)C)cc3)cc1C(c1ccccc1Cl)=NC2` had an IC50 of 80 nM.

Consider `Cc1nnc2n1-c1sc(C(CC(=O)N3CCOCC3)N=N)cc1C(c1ccccc1Cl)=NC2` (configuration not stated), for which the IC50 turned out to be 420 nM.

Regarding `Cc1nnc2n1-c1sc(CCc3ccc(-c4ccccn4)s3)cc1C(c1ccccc1Cl)=NC2`, the IC50 stood at 8 nM.

`Cc1nnc2n1-c1sc(C#Cc3ccccn3)cc1C(c1ccccc1Cl)=NC2`: the IC50 amounted to 250 nM.

`Cc1nnc2n1-c1sc(C#CCO)cc1C(c1ccccc1Cl)=NC2` had an IC50 of 180 nM.

With `CCCCc1ccc(C#Cc2cc3c(s2)-n2c(C)nnc2CN=C3c2ccccc2Cl)cc1`, the IC50 was found to be 650 nM.

In turn, `Cc1nnc2n1-c1sc(CCc3ccc(C4CCCCC4)cc3)cc1C(c1ccccc1Cl)=NC2` had an IC50 of 35 nM.

For the compound `C#Cc1cc2c(s1)-n1c(C)nnc1CN=C2c1ccccc1Cl`, the half-maximal inhibitory concentration (IC50) was 10 nM.

Compound `CCCCc1ccc(/C=C\c2cc3c(s2)-n2c(C)nnc2CN=C3c2ccccc2Cl)cc1` registered an IC50 of 10 nM.

As for `Cc1nnc2n1-c1sc(C#Cc3ccc(-c4ccccn4)s3)cc1C(c1ccccc1Cl)=NC2`, the IC50 is 60 nM.

In turn, `Cc1nnc2n1-c1sc(C#Cc3ccc4c(c3)CCC4)cc1C(c1ccccc1Cl)=NC2` showed a half-inhibitory concentration (IC50) of 380 nM.

Consider `Cc1nnc2n1-c1sc(/C=C\C(=O)N3CCOCC3)cc1C(c1ccccc1Cl)=NC2`, for which the half-inhibitory concentration (IC50) amounted to 180 nM.

In the case of `Cc1nnc2n1-c1sc(Br)cc1C(c1ccccc1Cl)=NC2` [2-Bromo-4-(2-chloro-phenyl)-9-methyl-6H-1-thia-5,7,8,9a-tetraaza-cyclopenta[e]azulene], the IC50 was 300 nM.

`Cc1cc(CCc2cc3c(s2)-n2c(C)nnc2CN=C3c2ccccc2Cl)cc2c1OC(C)(C)C2` had an IC50 of 400 nM.

`Cc1cc(C#Cc2cc3c(s2)-n2c(C)nnc2CN=C3c2ccccc2Cl)cc2c1OC(C)(C)C2` had a half-maximal inhibitory concentration (IC50) of 400 nM.

In turn, `Cc1nnc2n1-c1sc(CCc3ccc(CC(C)C)cc3)cc1C(c1ccccc1Cl)=NC2` gave an IC50 of 30 nM.

With `Cc1nnc2n1-c1sc(C#Cc3ccc4c(c3)CCO4)cc1C(c1ccccc1Cl)=NC2`, the IC50 came out at 420 nM.

`Cc1nnc2n1-c1sc(-c3nn[nH]c3C(=O)N3CCOCC3)cc1C(c1ccccc1Cl)=NC2`: the IC50 was 1000 nM.

Regarding `Cc1nnc2n1-c1sc(/C=C\c3ccc(C4CCCCC4)cc3)cc1C(c1ccccc1Cl)=NC2`, the half-maximal inhibitory concentration (IC50) was 120 nM.

`Cc1nnc2n1-c1sc(CCc3ccc4c(c3)CCC4)cc1C(c1ccccc1Cl)=NC2` gave an IC50 of 20 nM.

`CCCCc1ccc(CCc2cc3c(s2)-n2c(C)nnc2CN=C3c2ccccc2Cl)cc1` returned an IC50 of 10 nM.

`Cc1nnc2n1-c1sc(C#Cc3ccc(C4CCCCC4)cc3)cc1C(c1ccccc1Cl)=NC2`: the IC50 worked out at 300 nM.

For `Cc1nnc2n1-c1sc(CCc3ccc(-n4ccnc4)cc3)cc1C(c1ccccc1Cl)=NC2`, the IC50 was 100 nM.

The nature of the next experiment: Compound tested in vitro for Platelet activating factor receptor antagonist activity in a binding assay using washed whole dog platelets.
Compound `Cc1nnc2n1-c1sc(C#Cc3cccc4ccccc34)cc1C(c1ccccc1Cl)=NC2` gave an IC50 of 150 nM.

`Cc1nnc2n1-c1sc(C#Cc3ccccc3)cc1C(c1ccccc1Cl)=NC2` gave an IC50 of 100 nM.

On to `Cc1nnc2n1-c1sc(C#CC(=O)N3CCOCC3)cc1C(c1ccccc1Cl)=NC2`, for which the IC50 is 260 nM.

Compound `Cc1nnc2n1-c1sc(/C=C\c3ccccn3)cc1C(c1ccccc1Cl)=NC2` displayed an IC50 of 400 nM.

Compound `Cc1nnc2n1-c1sc(C#Cc3ccc(CC(C)C)cc3)cc1C(c1ccccc1Cl)=NC2` had an IC50 of 100 nM.
